This note sets out measurements from ChEMBL document CHEMBL3046649, “Fungitoxic and Phytotoxic Activities of Cinnamic Acid Esters and Amides” (2000).

The subject of test [1] is Athelia rolfsii. Description: Fungitoxic activity against Athelia rolfsii assessed as mycelial growth inhibition at 10 ppm after 4 to 5 days by agar dilution method. The test is classed as functional. Particulars: Agroathelia rolfsii; read-out: GI. (Agar dilution tests growth on a series of plates holding different concentrations.)
Test [2] deals with Brassica rapa subsp. chinensis. Put plainly: whole plant or invertebrate. The test is classed as functional. Particulars: 72 h, read-out: GI.
Description: Phytotoxicity against Brassica rapa subsp. chinensis assessed as growth inhibition of radicle at 100 ppm treated to seeds after 3 days
Test [3] deals with Athelia rolfsii. Description: microbe, parasite or virus in culture. The test is classed as functional. Particulars: Agroathelia rolfsii, read-out: GI.
Description: Fungitoxic activity against Athelia rolfsii assessed as mycelial growth inhibition at 100 ppm after 4 to 5 days by agar dilution method
Test [4] concerns Brassica rapa subsp. chinensis. Description: whole plant or invertebrate. The test is classed as functional. Particulars: 72 h, read-out: GI. The source holds these as a separate data set.
Description: Phytotoxicity against Brassica rapa subsp. chinensis assessed as growth inhibition of hypocotyl at 100 ppm treated to seeds after 3 days
For test [5], the system named is Pythium. Description: microbe, parasite or virus in culture. The test is classed as functional. The conditions noted are these: read-out: GI.
Description: Fungitoxic activity against Pythium sp. assessed as mycelial growth inhibition at 100 ppm after 4 to 5 days by agar dilution method
Test [6] relates to Pythium. Description: Fungitoxic activity against Pythium sp. assessed as mycelial growth inhibition at 10 ppm after 4 to 5 days by agar dilution method. The conditions noted are these: read-out: GI.

`CC(C)=CCCC(C)CCOC(=O)/C=C/c1ccc(C(C)C)cc1` (configuration not stated) [3,7-DIMETHYLOCT-6-ENYL 3-(4-ISOPROPYLPHENYL)ACRYLATE]: the inhibition of growth at 10 ppm turned out to be 9% in test [1] and 12% in test [6]. Also, the inhibition of growth at 100 ppm in test [2] stood at 0%; in test [3] it was 87%; in test [4], 39%; in test [5], 69%.

As to `CCOC(=O)/C=C/c1ccc(Cl)cc1` [ETHYL 3-(4-CHLOROPHENYL)ACRYLATE], the figures for the inhibition of growth at 10 ppm in test [1] and in test [6] were 19% and 8%, respectively. Moreover, the inhibition of growth at 100 ppm is 47% in test [2], 97% in test [3], 43% in test [4] and 99% in test [5].

Take `CC(C)OC(=O)/C=C/c1ccccc1` [ISOPROPYL CINNAMATE]: the figures for the inhibition of growth at 10 ppm in test [1] and in test [6] were 41% and 5%, respectively. The inhibition of growth at 100 ppm in test [2] came to 2%; in test [3], 86%; in test [4], 2%; in test [5], 82%.

Regarding `O=C(/C=C/c1ccc(Cl)cc1Cl)OCCOc1ccccc1`, the inhibition of growth at 10 ppm in test [1] and in test [6] was 14% in each case. Further, the inhibition of growth at 100 ppm in test [2] worked out at 8%; in test [3] it was 72%; in test [4], 33%; in test [5], 59%.

For the compound `CCCCNC(=O)/C=C/c1ccc(C(C)C)cc1` [N-BUTYL-3-(4-ISOPROPYLPHENYL)ACRYLAMIDE], the inhibition of growth at 10 ppm in test [1] amounted to 28%; in test [6] it was 37%. For the same compound, the inhibition of growth at 100 ppm in test [2] was determined as 51%; in test [3] it was 92%; in test [4] it was 41%; in test [5], 90%.

As to `CC(C)(C)NC(=O)/C=C/c1ccccc1` [N-TERT-BUTYLCINNAMAMIDE], the inhibition of growth at 10 ppm in test [1] came out at 26%; in test [6], 14%. Also, the inhibition of growth at 100 ppm was found to be 73% in test [2], 92% in test [3], 34% in test [4] and 71% in test [5].

Consider `CCCCCNC(=O)/C=C/c1ccccc1`, for which the inhibition of growth at 10 ppm came to 18% in test [1] and 23% in test [6]. For the same compound, the inhibition of growth at 100 ppm amounted to 76% in test [2], 87% in test [3], 60% in test [4] and 78% in test [5].
